Laboratory results published in publication PMC10216263, “Favorable Preclinical Pharmacological Profile of a Novel Antimalarial Pyrrolizidinylmethyl Derivative of 4-amino-7-chloroquinoline with Potent In Vitro and In Vivo Activities” (Biomolecules, 2023).
Read-outs that look alike come from different tables or passages of the source.

Legend:
[1] = Oral DRF and systemic exposure in NHP; assay type: in vivo, Cynomolgus monkeys; details: for AUC(0-t) / Cmax / Tmax: po, 50 mg/kg/day; for half-life: plasma, Day 5, 50 mg/kg/day oral, read-out: t1/2, z (converted)
Procedure: Seven days oral DRF in rats and dog, and five days oral DRF in Non-Human Primates (NHP) were performed using Sprague Dawley rats (n = 3/time point) of both sexes, one male and one female dog Beagle (Marshall/Green Hill) and one male and one female monkeys/Cynomolgus (Noveprim Ltd., Mahebourg Mauritius,). MG3 was administered as oral suspension in 0.5% methocel in water (400 cP viscosity) at the following doses: 30, 60 and 120 mg/kg/day for 7 days (rat), 15 and 30 mg/kg/days for 7 days (dog) and 25, 50 and 75 mg/kg/day (NHP). No Observed Effects Levels (NOEL) were determined. Mortality, behavior, and general conditions were observed daily. Body weight was recorded pre-test, and on Days 1, 4 and 7. Food consumption was recorded from Days 1 to 4 and 4 to 7. Hematological and clinical chemistry examinations were performed on Day 8. All animals were sacrificed under anesthesia at the end of the treatment period on Day 8 of study. Post-mortem examinations included necropsy, collection, and histological examination performed of selected organs/tissues.

[2] = Chemical stability in incubation medium; assay type: physicochemical; details: 90 min at 37 °C, Leibovitz L-15 medium
Procedure: An automatic liquid handling system (Multiprobe II EX, Packard) was used for sampling. At 0, 10, 20, 30, 60 and 90 min, […] aliquots of the incubates were taken and added with […] of ice-cold ACN and […] of 1 µM warfarin in ACN (internal standard), and samples centrifuged at 2000 rpm for 20 min. The analysis of supernatant was conducted using LC-MS/MS. MG3 was incubated in the medium under the same conditions to evaluate the chemical stability; 7-ethoxycoumarin (7-ETC) 1 µM and 7-hydroxycoumarin (7-HC) 30 µM were utilized as positive controls for Phase I and Phase II activities. […] Half-life and CLint were determined from the concentration (counts) remaining at the different sampling points using the LC-MS/MS method. The slope was calculated using linear regression analysis of the curve (natural logarithmic area of the compound remaining against the time) and converted into the half-life (t1/2) and CLint expressed as µL/min/million cells and mL/min/kg, respectively.

[3] = tested on: Salmonella typhimurium TA98; experiment: Bacterial Reverse Mutation Assay; details: TA 98, with metabolic activation
Procedure: using the preincubation method (30 min, 37°C) with and without phenobarbital-5,6-benzoflavone induced
MG3 was dissolved in distilled water (H2O) at
the maximum concentration of 40 mg/mL and tested in a preliminary range-finding test in all strains of
metabolic activation to determine the toxicity of the compound.

[4] = both sexes, cynomolgus monkey, in vivo
[5] = female, cynomolgus monkey, in vivo
[6] = male, cynomolgus monkey, in vivo

## Clc1ccc2c(NCC34CCCN3CCC4)ccnc2c1 [MG3, 7-Chloro-N-((hexahydro-1H-pyrrolizin-7a-yl)methyl)quinolin-4-amine]
[1]; NHP, 50 mg/kg/day for five consecutive days
  tolerability: tolerated with limited clinical signs
[1]; NHP, 75 mg/kg/day oral (Phase I, incremental doses)
  toxicity finding: associated with mortality and severe CNS-related clinical signs
[1]; [4]
  AUC(0-t): 896 ± 132 ng·h/mL
  Cmax: 70.1 ± 3.68 ng/mL
  Tmax: 1.25 ± 1.06 h
[1]; both sexes, cynomolgus monkey, in vivo, NHP, 5-day oral, read-out: maximum tolerated dose (MTD)
  MTD at 5 days: 50 mg/kg/day
[1]; both sexes, cynomolgus monkey, Mean ± SD of male and female NHP
  half-life: 14.9 ± 10.3 h
[1]; cynomolgus monkey, Female NHP
  half-life: 22.2 h
[1]; cynomolgus monkey, Male NHP
  half-life: 7.66 h
[1]; [5]
  AUC(0-t): 989 ng·h/mL
  Cmax: 72.7 ng/mL
  Tmax: 0.5 h
[1]; [6]
  AUC(0-t): 802 ng·h/mL
  Cmax: 67.5 ng/mL
  Tmax: 2 h
[2]
  chemical stability in incubation medium alone: did not show any degradation
[3]; I° Exp., 1000 µg/plate
  fold increase value (ratio treated/solvent revertant numbers): 1.1
[3]; I° Exp., 62.5 g/plate
  fold increase value (ratio treated/solvent revertant numbers): 1.1
[3]; I° Exp., 125 g/plate
  fold increase value (ratio treated/solvent revertant numbers): 1.2
[3]; I° Exp., 250 g/plate
  fold increase value (ratio treated/solvent revertant numbers): 1.4
[3]; I° Exp., 500 g/plate
  fold increase value (ratio treated/solvent revertant numbers): 1.5
[3]; Range finding, 1000 µg/plate
  fold increase value (ratio treated/solvent revertant numbers): 1.0
[3]; Range finding, 1.95 g/plate
  fold increase value (ratio treated/solvent revertant numbers): 0.9
[3]; Range finding, 3.9 g/plate
  fold increase value (ratio treated/solvent revertant numbers): 0.9
[3]; Range finding, 7.81 g/plate
  fold increase value (ratio treated/solvent revertant numbers): 1.5
[3]; Range finding, 15.63 g/plate
  fold increase value (ratio treated/solvent revertant numbers): 1.2
[3]; Range finding, 31.25 g/plate
  fold increase value (ratio treated/solvent revertant numbers): 1.0
[3]; Range finding, 62.5 g/plate
  fold increase value (ratio treated/solvent revertant numbers): 1.3
[3]; Range finding, 125 g/plate
  fold increase value (ratio treated/solvent revertant numbers): 1.3
[3]; Range finding, 250 g/plate
  fold increase value (ratio treated/solvent revertant numbers): 1.2
[3]; Range finding, 500 g/plate
  fold increase value (ratio treated/solvent revertant numbers): 1.2
